What was measured:
HIV-1 protease [1] = target: T1, HIV-1 protease (Human immunodeficiency virus type 1 group M subtype B, UniProt P04585); experiment: biochemical; conditions: read-out: HIV-1 FITC KI
Summary of the method: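 Ki from two-fold serial inhibitor dilutions (24–48 concentrations) with 40 nM HIV-1 protease stock and 200 μM substrate stock, 90 min at room temperature; stopped with avidin beads. Reference inhibitor run in parallel; Ki by nonlinear least-squares fit.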

HIV-1 protease [2] = target: T1, HIV-1 protease; experiment: biochemical; conditions: for inhibition at 0.123 µM: read-out: HIV-1 Protease % Inhib, dose 0.123 uM; for inhibition at 0.37 µM: read-out: HIV-1 Protease % Inhib, dose 0.370 uM; for inhibition at 1.1 µM: read-out: HIV-1 Protease % Inhib, dose 1.100 uM; for inhibition at 3.3 µM: read-out: HIV-1 Protease % Inhib, dose 3.300 uM; for inhibition at 10 µM: read-out: HIV-1 Protease % Inhib, dose 10.000 uM; for inhibition at 30 µM: read-out: HIV-1 Protease % Inhib, dose 30.000 uM
Summary of the method: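 Biotinylated, FITC-labeled peptide substrate (20 μl of 0.2 μM) incubated with HIV-1 protease (10 μl of 0.1 μM) and compound in 0.1 M sodium acetate pH 5.5, 1.0 M NaCl, 0.05% NP-40, 1 h, room temperature, dark. Streptavidin beads then capture uncleaved substrate; filtered labeled product read by fluorescence, giving percent inhibition.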

SMILES	Ki (HIV-1 protease [1]) [nM]	inhibition at 0.123 µM (HIV-1 protease [2]) [%]	inhibition at 0.37 µM (HIV-1 protease [2]) [%]	inhibition at 1.1 µM (HIV-1 protease [2]) [%]	inhibition at 3.3 µM (HIV-1 protease [2]) [%]	inhibition at 10 µM (HIV-1 protease [2]) [%]	inhibition at 30 µM (HIV-1 protease [2]) [%]
O=c1oc2c(c(O)c1C(c1cccc(NS(=O)(=O)c3ccccc3C(F)(F)F)c1)C1CC1)CCCCCC2 (stereo not shown) [Example 286, N-[3-[Cyclopropyl(5,6,7,8,9,10-hexahydro4-hydroxy-2-oxo-2H-cycloocta[b]pyran-3-yl)methyl]phenyl]-2-(trifluoromethyl)-benzenesulfonamide]	21.4	30	62.4	83.3	92.3	97.4	93.7
O=c1oc2c(c(O)c1C(c1cccc(NS(=O)(=O)c3cccc4nonc34)c1)C1CC1)CCCCCC2 (stereo not shown) [Example 290, N-[3-[Cyclopropyl(5,6,7,8,9,10-hexahydro-4-hydroxy-2-oxo-2H-cycloocta[b]pyran-3-yl)methyl]phenyl]-4-benzofurazansulfonamide]	2.7	90.3	115	123	119	126	114
Cc1nn(C)c(Cl)c1S(=O)(=O)Nc1cccc(C(c2c(O)c3c(oc2=O)CCCCCC3)C2CC2)c1 (stereo not shown) [Example 294, 5-Chloro-N-[3-[cyclopropyl(5,6,7,8,9,10-hexahydro-4-hydroxy-2-oxo-2H-cycloocta[b]pyran-3-yl)methyl]phenyl]-1,3-dimethyl-1H-pyrazole-4-sulfonamide]	139		20.9	52.9	81.1	94.7	110
O=C(NCc1ccc(S(=O)(=O)Nc2cccc(C(c3c(O)c4c(oc3=O)CCCCCC4)C3CC3)c2)s1)c1ccccc1 (stereo not shown) [Example 296, N-[[5-[[[3-[Cyclopropyl(5,6,7,8,9,10-hexahydro-4-hydroxy-2-oxo-2H-cycloocta[b]pyran-3-yl)methyl]phenyl]amino]sulfonyl]-2-thienyl]methyl]-benzamide]	24	14.6	74.8	95.5	104	108	114
O=c1oc2c(c(O)c1C(c1cccc(NS(=O)(=O)c3cc(S(=O)(=O)c4ccccc4)cs3)c1)C1CC1)CCCCCC2 (stereo not shown) [Example 298, N-[3-[Cyclopropyl(5,6,7,8,9,10-hexahydro-4-hydroxy-2-oxo-2H-cycloocta[b]pyran-3-yl)methyl]phenyl]4-(phenylsulfonyl)-2-thiophenesulfonamide]	2.5	67.4	84.6	94.6	97.5	101	100
O=c1oc2c(c(O)c1C(c1cccc(NS(=O)(=O)c3ccc(S(=O)(=O)c4ccccc4)s3)c1)C1CC1)CCCCCC2 (stereo not shown) [Example 299, N-[3-[Cyclopropyl(5,6,7,8,9,10-hexahydro-4-hydroxy-2-oxo-2H-cycloocta[b]pyran-3-yl)methyl]phenyl]-5-(phenylsulfonyl)-2-thiophenesulfonamide]	2.3	78.5	97.8	97.5	91.7	104	98.4
O=c1oc2c(c(O)c1C(c1cccc(NS(=O)(=O)c3ccc(Cl)s3)c1)C1CC1)CCCCCC2 (stereo not shown) [Example 301, 5-Chloro-N-[3-[cyclopropyl(5,6,7,8,9,10-hexahydro-4-hydroxy-2-oxo-2H-cycloocta[b]pyran-3-yl)methyl]phenyl]-2-thiophenesulfonamide]	4.8	74.7	91.2	102	100	104	114
O=c1oc2c(c(O)c1C(c1cccc(NS(=O)(=O)c3cc(Cl)c(Cl)s3)c1)C1CC1)CCCCCC2 (stereo not shown) [Example 302, 4,5-Dichloro-N-[3-[cyclopropyl(5,6,7,8,9,10-hexahydro-4-hydroxy-2-oxo-2H-cycloocta[b]pyran-3-yl)methyl]phenyl]-2-thiophenesulfonamide]	2.7	78.6	97.8	105	113	115	112
